Measurements taken from US20220132839A1, “MOSQUITO ATTRACTANT COMPOSITIONS” (UNIVERSITY OF WASHINGTON, priority 2019, published 2022).
Entries after “also recorded” stand apart in the source; their conditions may differ.

Key:
[1] = system: Aedes mosquitoes; assay: GC-EAD antennal responses, Aedes mosquitoes from the field
Text: (§1) Electroantennogram signals were filtered and amplified (100×; 0.1-500 Hz) using an A-M 1800 amplifier (Sequim, Wash., USA) connected to a personal computer via a BNC-2090A analog-to-digital board (National Instruments, Austin, Tex., USA) and digitized at 20 Hz using WinEDR software (Strathclyde Electrophysiology Software, Glasgow, UK). A Hum Bug noise eliminator (Quest Scientific, Vancouver, Canada) was used to decrease electrical noise. The antennal responses to peaks eluting from the GC were measured for each mosquito preparation, and each peak and mosquito species. Bioactive peaks were those that elicited strong EAD responses, corresponding to deflections beyond the average noise floor of the baseline EAD signal. Responses by each individual preparation were used for Principal Component Analysis (Ade4 package, R). The responses of eight different mosquito species were tested to the scent extracts of three orchid species (n=8 mosquito species for P. obtusata; n=4 mosquito species each for P. stricta and P. huronensis; with 3-17 replicates per mosquito species per orchid, for a total of 109 GC-EAD experiments).
Individual mosquitoes were isolated in Falcon™ tubes (Thermo Fisher Scientific, Pittsburgh, Pa., USA) covered with a piece of fine mesh. They were maintained in a climatic chamber, as previously described, and identified immediately before running the experiment. Carbon dioxide delivered through a pad (Genesee Scientific, San Diego, Calif., USA) was used to briefly anesthetize mosquitoes before transferring them on ice for the dissection. The head was excised and the tip (i.e., one segment) of each antenna was cut off with fine scissors under a binocular microscope (Carl Zeiss, Oberkochen, Germany). The head was then mounted on an electrode composed of a silver wire 0.01″ (A-M Systems, Carlsbord, Wash., USA) and a borosilicate pulled capillary (Sutter Instrument Company, Novato, Calif., USA) filled with a 1:3 mix of saline (L. B. Thien, F. Utech, The mode of pollination in Habenaria obtusata (Orchidaceae). American Journal of Botany 57, 1031-1035 (1970) and electrode gel (Parker Laboratories, Fairfield, N.J., USA) in order to avoid the preparation to desiccate during the experiment. The head was mounted by the neck on the reference electrode. The preparation was then moved to the GC-EAD with the tips of the antennae inserted under the microscope (Optiphot-2, Nikon, Tokyo, Japan) into a recording electrode, that was identical to the reference electrode. The mounted antennae were oriented at 90° from the main airline which was carrying filtered air (Praxair, Danbury, Conn., USA) and volatiles eluting from the Gas-Chromatograph to the preparation via a 200° C. transfer line (EC-05; Syntech GmbH, Buchenbach, Germany). Five microliters of the orchid extract were injected into the Gas Chromatograph with Flame Ionization Detection (Agilent 7820A GC, Agilent Technologies; DB5 column, J&W Scientific, Folsom, Calif., USA). The oven program was the same as the one used for the GC-MS analyses of the scent extracts. The transfer line from the GC to the preparation was set to 200° C.

[2] = system: Ae. increpitus mosquito antennal lobe (AL) glomeruli; assay: Two-photon calcium imaging (Fluo4) of the antennal lobe, Ae. increpitus; format: in vivo; settings: for LC2 glomerulus response: single odorants
Procedure: Odor-evoked responses in the Ae. increpitus mosquito antennal lobe (AL) with nine female mosquitoes at the beginning of the season when mosquitoes were relatively young (as defined by wing and scale appearance). Calcium imaging experiments were conducted using application of the calcium indicator Fluo4 to the mosquito brain and using a stage that allows simultaneous calcium imaging and tethered flight. The mosquito was cooled on ice and transferred to a Peltier-cooled holder that enables the mosquito to head to be fixed to the stage using ultraviolet glue. The custom stage permits the superfusion of saline to the head capsule and space for movement by the wings and proboscis. Once the mosquito was fixed to the stage, a window in its head was cut to expose the brain, and the brain was continuously superfused with physiological saline. Next, the perineural sheath was gently removed from the AL using fine forceps and 75 μL of the Fluo4 solution—made by […] of Fluo4 in 30 μL Pluronic F-127 and then subsequently diluted in 950 μL of mosquito physiological saline—was pipetted to the holder allowing the brain to be completely immersed in the dye. Mosquitoes were kept in the dark at 15° C. for 1.5 h (the appropriate time for adequate penetration of the dye into the tissue), after which the brain was washed 3 times with physiological saline. After the rinse, mosquitoes were kept in the dark at room temperature for approximately 10-20 min. before imaging.
Wing stroke amplitudes were acquired and analyzed using a custom camera-based computer vision system at frame rates of 100 Hz, where the mosquito was illuminated with infrared LEDs (880 nm) and images were collected with an infrared-sensitive camera synched to the two-photon system. Stimulus-evoked initiation of flight and changes in the amplitude of the wing-stroke envelope were characterized for each odor stimulus. Calcium-evoked responses in the AL were imaged using the Prairie Ultima IV two-photon excitation microscope (Prairie Technologies) and Ti-Sapphire laser (Chameleon Ultra; Coherent). Experiments were performed at a depth of 40 μm from the ventral surface of the AL, allowing the calcium dynamics from approximately 18-22 glomeruli to be repeatedly imaged across preparations. Images were collected at 2 Hz, and for each odor stimulus images were acquired for 35 s, starting 10 s before the stimulus onset. Imaging data were extracted in Fiji/ImageJ and imported into Matlab (v2017; Mathworks, Natick, Mass.) for Gaussian filtering (2×2 pixel; σ=1.5-3) and alignment using a single frame as the reference at a given imaging depth and subsequently registered to every frame to within ¼ pixel. Trigger-averaged ΔF/F was used for comparing glomerular responses between odor stimuli. […]

[3] = system: Ae. aegypti AL glomeruli; assay: Two-photon calcium imaging (PUb-GCaMP6s) of the antennal lobe, Ae. aegypti; format: in vivo; settings: for LC2 glomerulus response: single odorants; for effect of GABA-receptor antagonists on AM2 response to the P. obtusata scent / effect of GABA-receptor antagonists on LC2 and AM2 responses to the P. stricta scent: 1 μM CGP54626, 10 μM picrotoxin focally applied together on to the AL; for AM2 response with increasing dose: different concentrations; for AM2 glomerulus response: odor stimulation; for glomerular responses in the AL: imaged at 40 μm depth, particularly AL3 and LC2 glomeruli for the mixture; for AM2 response to lilac aldehyde/nonanal mixtures / LC2 response to lilac aldehyde/nonanal mixtures: lilac aldehyde and nonanal at different concentration ratios
Text: A total of twenty preparations were used: 10 for single odorant and orchid mixture experiments; 6 for ratio experiments; and 4 for experiments using GABA-receptor antagonists. […] The expression of GCaMP occurred in glia, local interneurons, and projection neurons. […] Thus, in the calcium imaging experiments care was taken to image from the central regions of the glomeruli and avoid the sheaths and external glomerular loci. […] Relatedly, GCaMP6s expression is very high in AL local interneurons and projection neurons (PNs), such that during odor stimulation the PNs and axonal processes can often be imaged, and 3D reconstructions can be take place through simultaneous optical sections with odor stimulation. Nonetheless, the glomerular responses were assumed to be a function of multiple cell types.
Similar to experiments with Ae. increpitus, the majority the mosquitoes were UV-glued to the stage to allow free movement of their wings and proboscis; however, for experiments using GABA-receptor antagonists the proboscis was glued to the stage for additional stability. Once the mosquito was fixed to the stage, a window in its head was cut to expose the brain, and the brain was continuously superfused with physiological saline.
Thus a provisional atlas was created with female mosquitoes (n=6) that allowed for cross-reference of the imaged glomeruli and comparison of their positions and structures to those described in the atlas. This was accomplished via clear glomerular boundaries, especially during odor stimulation, and the distinct odorant tuning of glomeruli throughout the depths of the AL (e.g., AM2 responsive to DEET; LC2 and AL3 responsive to nonanal; PD3 responsive to geosmin; and MD2 responsive to CO2) that allowed 3D registration across preparations and subsequent warping and referencing with the atlas.
Saline and pharmacological agents. The saline was made based on the Beyenbach and Masia recipe (L. B. Thien, F. Utech, The mode of pollination in Habenaria obtusata (Orchidaceae). American Journal of Botany 57, 1031-1035 (1970)) and contained 150.0 mM NaCl, 25.0 mM N-2-hydroxyethyl-piperazine-N′-2-ethanesulfonic acid (HEPES), 5.0 mM sucrose, 3.4 mM KCl, 1.8 mM NaHCO3, 1.7 mM CaCl2, and 1.0 mM MgCl2. The pH was adjusted to 7 with 1 M NaOH. […] […] A drip system comprising two 100 mL reservoirs—one containing the GABA receptor antagonists, and the other saline—converged on the two-channel temperature controller to facilitate rapid switching from normal physiological saline solution to the antagonists and back. Antagonists were superfused directly into the holder near to the opening of the head capsule and recorded neuropil. The odor-evoked responses were first recorded under normal physiological saline solution and then repeated under GABA receptor antagonists diluted in normal saline solution, and finally the normal saline wash. All calcium imaging data were statistically analyzed using Kruskal-Wallis tests with multiple comparisons and visualized using Principal Components Analysis. Analyses were performed in Matlab (v2017; Mathworks, Natick, Mass.).
Olfactory stimuli were delivered to the mosquito by pulses of air diverted through a 2 mL cartridge containing a piece of filter paper bearing the odor stimulus (2 An air line provided gentle and constant charcoal-filtered air at 1 m/s to the antennae allowing continuous ventilation to prevent adaptation of the olfactory receptor cells. The stimulus output was positioned in the air line 2 cm from and orthogonal to the mosquito antennae. For testing different ratios of lilac aldehyde and nonanal, two syringes bearing different concentrations of the odorants were used and positioned such that the outputs were positioned in the same location in the air stream. […]

[4] = system: Culiseta mosquitoes; assay: GC-EAD antennal responses, Culiseta mosquitoes; parameters: species or system Culiseta sp.; settings: peaks of the P. obtusata scent
Text: as §1
Individual mosquitoes were isolated in Falcon™ tubes (Thermo Fisher Scientific, Pittsburgh, Pa., USA) covered with a piece of fine mesh. They were maintained in a climatic chamber, as previously described, and identified immediately before running the experiment. […]

[5] = scents of P. stricta and P. huronensis, Ae. increpitus, Ae. communis, Ae. canadensis and Culiseta sp.
[6] = odorant tuning used for glomerular registration

C=CC(C)(O)CCC=C(C)C (racemic) [linalool]
antennal responses (GC-EAD) [1, 5]: all responded

CCCCCCCCO [1-octanol]
LC2 glomerulus response [2]: strongest response
LC2 glomerulus response [3]: strongest response

C[C@H](NC[C@H](O)CP(=O)(O)CC1CCCCC1)c1ccc(Cl)c(Cl)c1 [CGP54626, reference compound]
effect of GABA-receptor antagonists on AM2 response to the P. obtusata scent [3]: the effect of nonanal was blocked
effect of GABA-receptor antagonists on LC2 and AM2 responses to the P. stricta scent [3]: blocked the symmetrical inhibition by nonanal and lilac aldehyde

O=C=O [CO2, reference compound]
MD2 glomerulus response [3, 6]: responsive

CCN(CC)C(=O)c1cccc(C)c1 [DEET, N,N-diethyl-meta-toluamide, reference compound]
AM2 response with increasing dose [3]: significant increases in response with increasing dose
AM2 glomerulus response [3]: responsive

O=Cc1ccccc1 [benzaldehyde]
antennal responses (GC-EAD) [1, 5]: all responded

C=C1C2CCC(C2)C1(C)C (centres unmarked) [camphene]
antennal responses (GC-EAD) ([1]; peaks of the P. obtusata scent): evoked antennal responses

CC1CCCC2(C)CCCCC12O (centres unmarked) [geosmin, reference compound]
PD3 glomerulus response [3, 6]: responsive

C=CC1(C)CCC(C(C)C=O)O1 (centres unmarked) [lilac aldehyde, 5-dimethyl-5-ethenyl-2-tetrahydrofuranacetaldehydes]
antennal responses (GC-EAD) ([1]; high concentration in the scent of P. stricta, lesser in P. huronensis, antennae of Ae. increpitus and Ae. communis): relatively strong responses
antennal responses (GC-EAD) ([1]; peaks of the P. obtusata scent): evoked antennal responses
antennal responses (GC-EAD) [1, 5]: all responded
AM2 response with increasing dose [3]: significant increases in response with increasing dose
glomerular responses in the AL [3]: strong responses
AM2 response to lilac aldehyde/nonanal mixtures [3]: increased AM2 activation
LC2 response to lilac aldehyde/nonanal mixtures [3]: suppressed the response of LC2 to nonanal
AM2 glomerulus response to orchid mixtures ([3]; mixtures with lilac aldehyde scaled to other Platanthera species, compared with P. obtusata, Kruskal-Wallis p<0.05): significant increase in AM2 responses
LC2 glomerulus response to orchid mixtures ([3]; mixtures with lilac aldehyde scaled to other Platanthera species, nonanal as in the P. obtusata mixture, Kruskal-Wallis p<0.05): significant suppression of LC2 response
AM2 glomerulus response [3]: strongest response; also recorded: responsive

CCCCCCCCC=O [nonanal]
antennal responses (GC-EAD) ([1]; peaks of the P. obtusata scent): evoked antennal responses; also recorded: consistent responses and one of the strongest relative responses
antennal responses (GC-EAD) [1, 5]: all responded
antennal responses (GC-EAD) [4]: very little response
AM2 glomerulus response ([2]; odor stimulation): often exhibited inhibition
LC2 glomerulus response [2]: strongest response
glomerular responses in the AL [3]: strong responses
AM2 response to lilac aldehyde/nonanal mixtures [3]: caused suppression of AM2 responses to lilac aldehyde
LC2 response to lilac aldehyde/nonanal mixtures [3]: increasing the activation of LC2
AM2 glomerulus response [3]: often exhibited inhibition
AL3 glomerulus response [3, 6]: responsive
LC2 glomerulus response [3]: responsive; also recorded: strongest response

CCCCCCCC=O [octanal]
antennal responses (GC-EAD) ([1]; peaks of the P. obtusata scent): evoked antennal responses
LC2 glomerulus response [2]: strongest response
glomerular responses in the AL [3]: strong responses
LC2 glomerulus response [3]: strongest response

CC1=CCC2CC1C2(C)C (stereo not drawn) [α-pinene]
antennal responses (GC-EAD) ([1]; peaks of the P. obtusata scent): evoked antennal responses

C=CC(=C)CCC=C(C)C [β-myrcene]
antennal responses (GC-EAD) [1, 5]: all responded

C=C1CCC2CC1C2(C)C (stereo not drawn) [β-pinene]
antennal responses (GC-EAD) ([1]; peaks of the P. obtusata scent): evoked antennal responses

picrotoxin [reference compound]
effect of GABA-receptor antagonists on AM2 response to the P. obtusata scent [3]: the effect of nonanal was blocked
effect of GABA-receptor antagonists on LC2 and AM2 responses to the P. stricta scent [3]: blocked the symmetrical inhibition by nonanal and lilac aldehyde
